Reference: patent US20240181081A1, “Compositions and Methods for Treatment of Myotonic Dystrophy Type 1 with CRISPR/SACAS9” (Vertex Pharmaceuticals Incorporated, priority 2021, published 2024)

Experiments:
[1] = tested on: CTG repeat expansion in the 3′ UTR of human DMPK gene; assay: DOUBLE-cut screening: CTG repeat excision by loss-of-signal ddPCR in primary DM1 patient myoblasts; type: cell-based; conditions: sgRNA pair RNP, mean of upstream and downstream ddPCR assays; for % of CTG repeat excision efficiency by ddPCR (DNA-PKi): 3 μM Compound 6 for 48 hrs; for % of CTG repeat excision efficiency by ddPCR (Vehicle): DMSO 48 hrs
Procedure: (§1) RNPs were assembled with recombinant SaCas9 protein (Aldevron) and chemically modified sgRNAs (Synthego) at a ratio of 1:3 (protein:sgRNA). For SINGLE-cut screening, RNP complexes were assembled with 30 pmol of SaCas9 and 90 pmol of sgRNA in P5 Primary Cell Nucleofector Solution (Lonza). After incubation at room temperature for 20 minutes, 10 μL of RNP complex was mixed with two hundred thousand primary myoblasts resuspended in 10 μL of P5 Nucleofector Solution. For DOUBLE-cut screening, RNP complexes were first assembled for individual sgRNAs with 20 pmol of SaCas9 protein and 60 pmol of sgRNAs in 5 μL of P5 Nucleofector Solution. After incubation at room temperature for 20 minutes, the two RNP complexes (one for upstream sgRNA and one for downstream sgRNA) were mixed at 1:1 ratio and then further mixed with two hundred thousand primary myoblasts resuspended in 10 μL of P5 Nucleofector Solution.
(§2) The Nucleofector 96-well Shuttle System (Lonza) was used to deliver the SaCa9/sgRNA RNPs into primary DM1 patient myoblasts using the nucleofection program CM138. Following nucleofection, myoblasts from each well of nucleofection shuttle were split into six wells of the 96-well cell culture plate (Greiner, 655090) coated with matrigel. The first three wells were treated with DMSO for 48 hrs before changing to fresh myoblast growth medium, and the other three wells were treated with 3 μM of DNA-PKi Compound 6 for 48 hrs before changing to fresh myoblast growth medium. 72 hrs post nucleofection, two wells of DMSO-treated myoblasts and two wells of DNA-PKi-treated myoblasts from each nucleofection were harvested for genomic DNA extraction using the Kingfisher Flex purification system (Thermal Fisher), whereas one well of DMSO-treated myoblasts and one well of DNA-PKi-treated myoblasts were stained for RNA foci by FISH staining.
The primers and probes of ddPCR were designed using the online primer design software Primer3Plus (http://www.bioinformatics.nl/cgi-bin/primer3plus/primer3plus.cgi). The two Target primers/probe sets were used to detect CTG repeat excision, and the Reference primers/probe set was used to amplify a region located in Exon 1 of human DMPK gene and it served as a reference control for the Target sets. The 24 μL of ddPCR reaction consisted of 12 μL of Supermix for Probes (no dUTP) (Bio-Rad Laboratories), 1 μL of Reference primers mix (21.6 μM), 1 μL of Reference probe (6 μM), 1 μL of Target primers mix (21.6 μM), 1 μL of Target probe (6 μM), and 8 μL of sample genomic DNA. Droplets were generated using probe oil with the QX200 Droplet Generator (Bio-Rad Laboratories). Droplets were transferred to a 96-well PCR plate, sealed and cycled in a C1000 deep well Thermocycler (Bio-Rad Laboratories) under the following cycling protocol: 1 cycle at 95° C. for 10 min; 40 cycles of 94° C. for 30 sec, and 58° C. for 1 min; 1 cycle at 98° C. for 10 min (for enzyme inactivation). The cycled plate was then transferred and read in the FAM and HEX channels using the Bio-Rad QX200 Droplet Reader (Bio-Rad Laboratories). ddPCR analysis was performed with the Bio-Rad QuantaSoft Pro Software.
Next, DOUBLE-cut screening was performed to assess the efficiency of paired sgRNAs-induced CTG repeat excision and RNA foci reduction. 90 SaCas9 sgRNA pairs formed by one upstream sgRNA and one downstream sgRNA were assembled with recombinant SaCas9 protein into RNP complex and nucleofected into primary DM1 patient myoblasts. Nucleofected myoblasts were treated with either DMSO (vehicle) or 3 μM of Compound 6 (DNA-PKi) for 48 hrs. 72 hrs post nucleofection, myoblasts were subjected to either genomic DNA isolation or RNA foci staining.
One upstream and one downstream loss-of-signal droplet digital PCR (ddPCR) assays were used to determine the efficiency of CTG repeat excision. ddPCR signals would be abolished upon excision of the CTG repeat expansion in these loss-of-signal ddPCR assays. […]

[2] = tested on: CUG RNA foci in primary DM1 patient myoblasts; assay: DOUBLE-cut screening: FISH staining of RNA foci in primary DM1 patient myoblasts; type: cell-based, human; conditions: sgRNA pair RNP, 72 hrs post nucleofection; for % of CUG foci free nuclei (DNA-PKi): 3 μM Compound 6 for 48 hrs; for % of CUG foci free nuclei (Vehicle): DMSO 48 hrs
Procedure: as §1, §2
Primary myoblasts were fixed for 15 min with 4% paraformaldehyde (PFA) and washed five times with 1×PBS for 10 min each at room temperature. Before staining, cells were permeabilized with 0.5% triton X-100 in 1×PBS for 5 min at room temperature, and then washed with 30% formamide and 2× saline-sodium citrate (SSC) mixture for 10 min at room temperature. Cells were then stained with 1 ng/μL of Cy3-PNA(CAG) 5 probe (PNA Bio, F5001) diluted in 30% formamide, 2×SSC, 2 μg/mL BSA, 66 μg/mL yeast tRNA, and 2 mM vanadyl complex for 15 min at 80° C. Following probe staining, cells were then washed in 30% formamide and 2×SSC mixture for 30 min at 42° C., then washed in 30% formamide and 2×SSC mixture for 30 min at 37° C., and then washed in 1×SSC solution for 10 min at room temperature, and finally washed in 1×PBS for 10 min at room temperature. Cells were next stained with anti-MBNL1 antibody (Santa Cruz, 3A4) diluted in 1% bovine serum albumin (BSA) for overnight at 4° C., and washed twice with 1×PBS for 10 min each at room temperature. Cells were then incubated with the secondary antibody goat […] Alexa 647 (Thermo Fisher, A32728) diluted in 1% BSA for 1 hr at room temperature, and washed twice with 1×PBS for 10 min each at room temperature. Next, cells were stained with Hoechst solution (Thermo Fisher, H3569) at 0.1 mg/ml for 5 min, and washed once with 1×PBS for 5 min. PBS was aspirated and fresh 100 μl of fresh PBS was added to each well. High-throughput acquisition of images was completed with the ImageXpress Micro Confocal High-Content Imaging System (Molecular Devices). RNA foci quantifications were accomplished with a customized analysis module of the MetaXpress program (Molecular Devices).
Next, DOUBLE-cut screening was performed to assess the efficiency of paired sgRNAs-induced CTG repeat excision and RNA foci reduction. 90 SaCas9 sgRNA pairs formed by one upstream sgRNA and one downstream sgRNA were assembled with recombinant SaCas9 protein into RNP complex and nucleofected into primary DM1 patient myoblasts. […]

Substance | % of CTG repeat excision efficiency by ddPCR (DNA-PKi) [1] [%] | % of CTG repeat excision efficiency by ddPCR (Vehicle) [1] [%] | % of CUG foci free nuclei (DNA-PKi) [2] [%] | % of CUG foci free nuclei (Vehicle) [2] [%]
SaU2 + SaD3: SaCas9 sgRNA pair, SEQ ID NOs: 2 and 11 (guide 1 ACTCAGTCTTCCAACGGGGCCC; guide 2 CAACGATAGGTGGGGGTGCGTG; listed as DNA, chemistry not fully specified) | 56.04 | 36.75 | 80.14 | 55.11
SaU2 + SaD20: SaCas9 sgRNA pair, SEQ ID NOs: 2 and 28 (guide 1 ACTCAGTCTTCCAACGGGGCCC; guide 2 AGATGGAGGGCCTTTTATTCGC; listed as DNA, chemistry not fully specified) | 61.08 | 36.35 | 82.08 | 74.86
SaU8 + SaD15: SaCas9 sgRNA pair, SEQ ID NOs: 8 and 23 (guide 1 GGCTCGAAGGGTCCTTGTAGCC; guide 2 GACAATAAATACCGAGGAATGT; listed as DNA, chemistry not fully specified) | 57.24 | 39.47 | 86.21 | 76.50
SaU8 +SaD20: SaCas9 sgRNA pair, SEQ ID NOs: 8 and 28 (guide 1 GGCTCGAAGGGTCCTTGTAGCC; guide 2 AGATGGAGGGCCTTTTATTCGC; listed as DNA, chemistry not fully specified) | 62.59 | 39.72 | 81.21 | 71.20
SaU3 + SaD4: SaCas9 sgRNA pair, SEQ ID NOs: 3 and 12 (guide 1 ACTCCGGGGCCCCGTTGGAAGA; guide 2 ACTTTGCGAACCAACGATAGGT; listed as DNA, chemistry not fully specified) | 64.28 | 47.22 | 87.42 | 83.67
SaU3 + SaD19: SaCas9 sgRNA pair, SEQ ID NOs: 3 and 27 (guide 1 ACTCCGGGGCCCCGTTGGAAGA; guide 2 AGGACCCCCACCCCCGACCCTC; listed as DNA, chemistry not fully specified) | 53.36 | 32.67 | 81.67 | 57.16
SaU2 + SaD19: SaCas9 sgRNA pair, SEQ ID NOs: 2 and 27 (guide 1 ACTCAGTCTTCCAACGGGGCCC; guide 2 AGGACCCCCACCCCCGACCCTC; listed as DNA, chemistry not fully specified) | 56.62 | 49.08 | 80.94 | 62.27
SaU3 + SaD18: SaCas9 sgRNA pair, SEQ ID NOs: 3 and 26 (guide 1 ACTCCGGGGCCCCGTTGGAAGA; guide 2 GGGCCTTTTATTCGCGAGGGTC; listed as DNA, chemistry not fully specified) | 50.13 | 21.51 | 71.73 | 33.15
SaU4 + SaD11: SaCas9 sgRNA pair, SEQ ID NOs: 4 and 19 (guide 1 CCAGTTCACAACCGCTCCGAGC; guide 2 CAAAACGTGGATTGGGGTTGTT; listed as DNA, chemistry not fully specified) | 54.55 | 36.98 | 78.29 | 58.71
SaU1 + SaD18: SaCas9 sgRNA pair, SEQ ID NOs: 1 and 26 (guide 1 GCCCCGGAGTCGAAGACAGTTC; guide 2 GGGCCTTTTATTCGCGAGGGTC; listed as DNA, chemistry not fully specified) | 47.64 | 19.40 | 69.94 | 29.85
SaU1 + SaD15: SaCas9 sgRNA pair, SEQ ID NOs: 1 and 23 (guide 1 GCCCCGGAGTCGAAGACAGTTC; guide 2 GACAATAAATACCGAGGAATGT; listed as DNA, chemistry not fully specified) | 64.96 | 37.54 | 85.70 | 72.80
SaU3 + SaD15: SaCas9 sgRNA pair, SEQ ID NOs: 3 and 23 (guide 1 ACTCCGGGGCCCCGTTGGAAGA; guide 2 GACAATAAATACCGAGGAATGT; listed as DNA, chemistry not fully specified) | 65.28 | 37.42 | 86.64 | 74.00
SaU7 + SaD2: SaCas9 sgRNA pair, SEQ ID NOs: 7 and 10 (guide 1 CGCGGCCGGCGAACGGGGCTCG; guide 2 TCGGCCAGGCTGAGGCCCTGAC; listed as DNA, chemistry not fully specified) | – | – | 81.28 | 70.29
SaU8 + SaD2: SaCas9 sgRNA pair, SEQ ID NOs: 8 and 10 (guide 1 GGCTCGAAGGGTCCTTGTAGCC; guide 2 TCGGCCAGGCTGAGGCCCTGAC; listed as DNA, chemistry not fully specified) | – | – | 82.91 | 76.39
